≈ marks a conversion by molar mass, not a printed value. Read-outs that look alike come from different tables or passages of the source.
Assays:
M. abscessus ATCC 19977 = experiment: MIC assay in 96-well plate format, wild-type strain; assay type: cell-based, Mycobacterium abscessus; conditions: for MICWT: Table 10
Method in brief: (§1)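 Two-fold, ten-point dilutions in 7H9 with 2% DMSO; mid-log culture diluted to OD600=0.1 (1×10^7 CFU/mL). Incubated 3 days at 37 °C, shaking 110 RPM; growth = Day 3 minus Day 0 OD600, expressed as percentage of drug-free growth and plotted against concentration. Two biological replicates.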

[1] = test system: M. abscessus subsp. bolletii CCUG 50184T; experiment: MIC, anti-mycobacterial profiling; assay type: cell-based, Mycobacterium abscessus; conditions: mean of two experiments
Description: (§2) MIC determination was carried out in 96-well plate format as previously described.^[13-14] 96-well plates were initially set up with 100 μL of 7H9 per well. For each compound, a ten-point two-fold dilution series starting at twice the desired highest concentration was dispensed onto the 96-well plates using a Tecan D300e Digital Dispenser, with the DMSO concentration normalized to 2%. M. abscessus culture grown to mid-log phase (OD600=0.4-0.6) was diluted to OD600=0.1 (1×10^7 CFU/mL). 100 μL of the resulting bacteria suspension was dispensed onto the 96-well plates containing compounds to give a final volume of 200 μL per well with an initial OD600=0.05 (5×10^6 CFU/mL) and final DMSO concentration of 1%. Final compound concentration ranges were typically 50-0.098 μM, 6.25-0.012 μM, 0.006-3.13 μM, or 0.003-1.56 μM. Untreated control wells are included on each plate that contain bacteria suspension and 1% DMSO. Plates were sealed with parafilm, stored in boxes with wet paper towels and incubated at 37° C. with shaking (110 RPM). Plates were incubated for 3 days. To determine growth, OD600 was measured using a Tecan Infinite M200 plate reader on Day 0 and Day 3. Two biological replicates were performed. Clarithromycin was included in each experiment as a positive control.
(§3) For each well on the 96-well plate, bacterial growth was calculated by subtracting the Day 0 OD600 value from the Day 3 OD600 value. For each compound series, the bacterial growth values for the untreated control wells were averaged to give the average drug-free bacterial growth. For compound-containing wells, percentage growth was calculated by dividing their growth values by the average drug-free bacterial growth for the compound series and multiplying by 100. For each compound series, we plotted percentage growth versus compound concentration. By visual inspection of the dose-response curve, we determined the MIC of a compound as the compound concentrations that would result in 90% growth inhibition.
(§4) The MIC data was determined using methods disclosed in Example 1.

[2] = test system: M. abscessus subsp. massiliense CCUG 48898T; experiment: MIC, anti-mycobacterial profiling; assay type: cell-based, Mycobacterium abscessus; conditions: mean of two experiments
Description: as §2, §3, §4

M. chelonae ATCC 35752 = experiment: MIC, anti-mycobacterial profiling; assay type: cell-based, Mycobacterium chelonae; conditions: mean of two experiments
M. fortuitum ATCC 6841 = experiment: MIC, anti-mycobacterial profiling; assay type: cell-based, Mycobacterium fortuitum; conditions: mean of two experiments
[3] = test system: M. avium subsp. hominisuis MAC109; experiment: MIC, anti-mycobacterial profiling; assay type: cell-based, Mycobacterium avium; conditions: mean of two experiments
[4] = test system: M. intracellulare ATCC 13950; experiment: MIC, anti-mycobacterial profiling; assay type: cell-based, Mycobacterium intracellulare; conditions: mean of two experiments
M. chimaera CCUG 50989T = experiment: MIC, anti-mycobacterial profiling; assay type: cell-based, Mycobacterium chimaera; conditions: mean of two experiments
M. kansasii ATCC 12478 = experiment: MIC, anti-mycobacterial profiling; assay type: cell-based, Mycobacterium kansasii; conditions: mean of two experiments
M. szulgai ATCC 35799 = experiment: MIC, anti-mycobacterial profiling; assay type: cell-based, Mycobacterium szulgai; conditions: mean of two experiments
M. xenopi ATCC 19250 = experiment: MIC, anti-mycobacterial profiling; assay type: cell-based, Mycobacterium xenopi; conditions: mean of two experiments
M. simiae ATCC 25275 = experiment: MIC, anti-mycobacterial profiling; assay type: cell-based, Mycobacterium simiae; conditions: mean of two experiments
Δarr M. abscessus = experiment: MIC assay, isogenic arr-deleted strain; assay type: cell-based, Mycobacterium abscessus; conditions: Table 10
Method in brief: as §1

[5] = Mouse pharmacokinetics studies; assay type: in vivo, CD-1 mice; conditions: for ƒAUC/MIC: Table 20; for F / Vd / clearance: female, CD-1, mouse, in vivo
Method in brief: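 Plasma from K2EDTA-collected blood analysed by LC-MS/MS with multiple-reaction monitoring in electrospray positive mode. Parameters derived by non-compartmental analysis.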

[6] = Plasma protein binding assay (rapid equilibrium dialysis); assay type: in vitro ADME; conditions: plasma
Method in brief: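 Rapid equilibrium dialysis ran 4 h at 37° C (300 RPM) with compound-spiked plasma (10,000 ng/mL) on one side and PBS on the other. Each side was then mixed 1:1 […] to equalise matrix before LC-MS/MS quantification.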

THP-1 = experiment: Fold-killing in THP-1; assay type: cell-based; conditions: expressed in log-10 scale
Mab ATCC 19977 (Smooth) = experiment: Acute Mab mouse infection model (GM-CSF knockout mice); assay type: in vivo; conditions: 25 mg/kg every day for 7 days
Description: In vivo efficacy of compounds UMN22 and UMN34 were evaluated in acute Mab mouse infection model.

Mycobacterium abscessus = experiment: MIC against Mycobacterium abscessus (strain not given); assay type: cell-based
CYP3A4 = conditions: human, 10 μM
Description: The threshold cycle (CT) was measured for each isoform cDNA by real time qRT-PCR. The mRNA level of each isoform was assessed by the relative quantifiation with reference gene (GAPDH) as the normalizer method. The normalized fold induction was calculated by 2^−ΔΔCT method, in which 0.1% DMSO was used as the reference (vehicle control). The induction potential of each test compound was analyzed by comparing its fold induction to a pre-determined cutoff value for each lot of hepatocytes. The hepatocytes lots used in this study were validated using 10 known inducers and 5 known non-inducers for each isozyme. A cutoff value is determined based on the validation study for each hepatocytes lot.

[7] = Mycobacteroides abscessus, 72 h, Table 22, read-out: MICMab
[8] = Mycobacteroides abscessus, against Mycobacterium abscessus, Table 19, read-out: MIC
[9] = against Mycobacterium abscessus, Table 20, read-out: MIC

Row | SMILES | MICWT (M. abscessus ATCC 19977) [µM] | MICΔorr (Δarr M. abscessus) [µM] | ƒAUC/MIC [5] | F [5] [%] | Vd [5] [L/kg] | clearance [5] [mL/min/kg] | plasma unbound (ƒu, %) ([6]; 4 h, 10000 ng/mL) [%] | Fold-killing in THP-1 (THP-1) | reduction in lung CFU burden vs RFB and untreated groups (Mab ATCC 19977 (Smooth)) [log10] | MIC (Mycobacterium abscessus; [7]) [µM] | MIC (Mycobacterium abscessus; [8]) [µM] | MIC (Mycobacterium abscessus; [9]) [µM] | CYP3A4 gene fold-induction at 10 μM (CYP3A4) | further results
1 | CO[C@H]1/C=C/O[C@@]2(C)Oc3c(C)c(O)c4c(O)c(c(/C=N/N5CCN(C)CC5)c(O)c4c3C2=O)NC(=O)/C(C)=C\C=C\[C@H](C)[C@H](O)[C@@H](C)[C@@H](O)[C@@H](C)[C@H](OC(C)=O)[C@@H]1C [RIF] |  |  |  |  |  |  |  |  |  |  |  |  |  | MIC (M. abscessus ATCC 19977; M. abscessus subsp. abscessus ATCC 19977, mean of two experiments, read-out: MIC): 9.5 µM (≈ 7.82 µg/mL); MIC [1]: 28 µM (≈ 23 µg/mL); MIC [2]: 13 µM (≈ 10.7 µg/mL); MIC (M. chelonae ATCC 35752): 1.4 µM (≈ 1.15 µg/mL); MIC (M. fortuitum ATCC 6841): 6.7 µM (≈ 5.51 µg/mL); MIC [3]: 0.04 µM (≈ 0.0329 µg/mL); MIC [4]: 0.06 µM (≈ 0.0494 µg/mL); MIC (M. chimaera CCUG 50989T): 0.07 µM (≈ 0.0576 µg/mL); MIC (M. kansasii ATCC 12478): 0.3 µM (≈ 0.247 µg/mL); MIC (M. szulgai ATCC 35799): 0.06 µM (≈ 0.0494 µg/mL); MIC (M. xenopi ATCC 19250): 0.04 µM (≈ 0.0329 µg/mL); MIC (M. simiae ATCC 25275): >100 µM
2 | CO[C@H]1/C=C/O[C@@]2(C)Oc3c(C)c(O)c4c(c3C2=O)C2=NC3(CCN(CC(C)C)CC3)NC2=C(NC(=O)/C(C)=C/C=C/[C@H](C)[C@H](O)[C@@H](C)[C@@H](O)[C@@H](C)[C@H](OC(=O)c2cccnc2)[C@@H]1C)C4=O [UMN22] | 0.025 | 0.027 | 45.0 | 78 | 1.6 | 3 | 2.0 | 3.8 | ~2 | 0.025 (≈ 0.0228 µg/mL) | 0.025 (≈ 0.0228 µg/mL) | 0.025 (≈ 0.0228 µg/mL) | 14.1 | 
3 | COc1ccccc1NC(=O)O[C@H]1[C@H](C)[C@H](O)[C@H](C)[C@@H](O)[C@@H](C)/C=C/C=C(\C)C(=O)NC2=C3NC4(CCN(CC(C)C)CC4)N=C3c3c(c(O)c(C)c4c3C(=O)[C@@](C)(O/C=C/[C@H](OC)[C@H]1C)O4)C2=O [UMN34] | 0.015 | 0.014 | 0.9 |  |  |  |  | 4.9 | ~2 |  |  | 0.015 (≈ 0.0143 µg/mL) |  | plasma unbound (ƒu, %) [6]: 0.12%; plasma unbound fraction [6]: 0.12%
4 | CO[C@H]1/C=C/O[C@@]2(C)Oc3c(C)c(O)c4c(c3C2=O)C2=NC3(CCN(CC(C)C)CC3)NC2=C(NC(=O)/C(C)=C/C=C/[C@H](C)[C@H](O)[C@@H](C)[C@@H](O)[C@@H](C)[C@H](OC(=O)c2cncnc2)[C@@H]1C)C4=O [UMN46] | 0.018 | 0.025 | 87.8 | 86 | 2.1 | 4 | 4.7 | 4.4 |  | 0.018 (≈ 0.0164 µg/mL) | 0.018 (≈ 0.0164 µg/mL) | 0.018 (≈ 0.0164 µg/mL) | 7.9 | 

Source: patent publication US20260109712A1, “RIFAMYCINS FOR NONTUBERCULOUS MYCOBACTERIA” (priority 2022, published 2026)
